This passage reports IC50 and Ki results from patent US9732094B2, “Arylquinazolines” (Merck Patent GmbH, priority 2013, dated 2017).

The term IC50 denotes the concentration that gives 50% inhibition. By Ki is commonly meant a measure of affinity in units of concentration, obtained from inhibition or displacement.

One data set concerns the target DNA-PK (Homo sapiens (Human), UniProt P78527). Put plainly: DNA-PK assay (biochemical), flashplate 33P-ATP kinase assay. The settings on record: biochemical DNA-PK assay. In outline:
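Reactions ran in streptavidin-coated flashplates and were halted by 200 mM EDTA, with a further 30 min at room temperature before saline washing.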

Data set [1] concerns the target DNA-PK phosphorylation at serine 2056 (Homo sapiens (Human), UniProt P78527). Put plainly: DNA-PK phosphorylation at serine 2056 (cellular), bleomycin-treated HCT116 cells, ELISA. In kind it is cell-based. The settings on record: cellular DNA-PK phosphorylation at serine 2056, HCT116; read-out: IC50 pDNA-PK. The method in brief:
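HCT116 cells were treated with 10 μM bleomycin plus test compounds for six hours at 37 °C. Phospho-Ser2056 DNA-PK measured by chemiluminescent ELISA, normalised to total DNA-PKcs signal; DMSO control as blank.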

The next data set concerns the target Kv11.1 (hERG) (Homo sapiens (Human), UniProt Q12809). Put plainly: Kv11.1 (hERG) ion channel activity (patch clamp assay), HEK293 cells transfected with hERG gene. The note with it: hERG patch clamp assay (cells without asterisk). (hERG is a cardiac potassium channel; its block is linked to QT prolongation.)

Where two headings read alike, the source gives them in different places. Some results are limits rather than exact numbers.

Sequence of Kv11.1 (hERG) (Q12809 whole entry): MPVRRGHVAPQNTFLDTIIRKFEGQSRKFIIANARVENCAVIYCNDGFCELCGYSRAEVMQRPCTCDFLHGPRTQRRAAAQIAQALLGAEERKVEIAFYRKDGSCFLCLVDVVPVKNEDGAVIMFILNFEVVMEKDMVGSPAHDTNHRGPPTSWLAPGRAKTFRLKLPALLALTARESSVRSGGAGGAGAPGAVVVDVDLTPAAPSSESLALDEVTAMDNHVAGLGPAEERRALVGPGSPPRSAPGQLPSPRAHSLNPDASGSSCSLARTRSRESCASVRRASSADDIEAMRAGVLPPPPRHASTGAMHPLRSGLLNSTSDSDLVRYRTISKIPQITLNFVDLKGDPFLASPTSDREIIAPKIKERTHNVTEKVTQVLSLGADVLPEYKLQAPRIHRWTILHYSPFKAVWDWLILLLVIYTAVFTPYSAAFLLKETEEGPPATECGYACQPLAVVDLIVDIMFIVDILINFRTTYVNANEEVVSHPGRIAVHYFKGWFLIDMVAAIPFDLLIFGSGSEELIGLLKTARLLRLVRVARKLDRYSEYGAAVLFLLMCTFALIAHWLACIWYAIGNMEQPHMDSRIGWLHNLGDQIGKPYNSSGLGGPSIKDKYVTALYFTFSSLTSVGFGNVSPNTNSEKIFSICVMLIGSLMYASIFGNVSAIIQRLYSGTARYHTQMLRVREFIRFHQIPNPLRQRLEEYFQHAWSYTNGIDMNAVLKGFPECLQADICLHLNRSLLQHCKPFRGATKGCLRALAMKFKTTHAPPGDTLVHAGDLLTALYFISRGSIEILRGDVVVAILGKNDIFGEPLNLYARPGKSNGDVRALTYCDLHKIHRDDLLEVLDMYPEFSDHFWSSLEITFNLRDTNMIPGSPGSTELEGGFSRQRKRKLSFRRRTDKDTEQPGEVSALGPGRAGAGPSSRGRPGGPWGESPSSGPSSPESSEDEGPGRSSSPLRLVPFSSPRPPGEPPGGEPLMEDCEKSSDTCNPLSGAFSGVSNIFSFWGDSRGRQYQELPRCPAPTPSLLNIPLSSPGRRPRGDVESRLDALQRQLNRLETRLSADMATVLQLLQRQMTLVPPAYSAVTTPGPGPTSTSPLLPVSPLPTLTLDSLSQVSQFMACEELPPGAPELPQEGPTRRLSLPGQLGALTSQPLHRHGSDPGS

In the case of `Cc1cncnc1C(O)c1cc(-c2ncnc3cc(N4CCOCC4)ccc23)ccc1F` (stereo not drawn) [Example 392, [2-Fluoro-5-(7-morpholin-4-yl-quinazolin-4-yl)-phenyl]-(5-methyl-pyrimidin-4-yl)-methanol], the half-inhibitory concentration (IC50) at DNA-PK was in the range of 0.003 to 0.007 µM; in data set [1], 0.5 to 5 µM. At Kv11.1 (hERG) (Ki [Kv1.11 hERG]), the inhibition constant Ki was in the range of 15 to 25 µM.
For the compound `Cc1nccnc1C(O)c1cc(-c2ncnc3cc(N4CCOCC4)ccc23)ccc1F` (stereo not drawn) [Example 393, [2-Fluoro-5-(7-morpholin-4-yl-quinazolin-4-yl)-phenyl]-(3-methyl-pyrazin-2-yl)-methanol], the results for the IC50 (at DNA-PK; in data set [1]) were 0.003 to 0.007 µM and 5 to 10 µM, respectively. At Kv11.1 (hERG) (Ki [Kv1.11 hERG]), this compound returned an inhibition constant (Ki) of 15 to 25 µM.
For the compound `COc1nccnc1C(O)c1cc(-c2ncnc3cc(N4CCOCC4)ccc23)ccc1F` (stereo not drawn) [Example 394, [2-Fluoro-5-(7-morpholin-4-yl-quinazolin-4-yl)-phenyl]-(3-methoxy-pyrazin-2-yl)-methanol], the half-inhibitory concentration (IC50) against DNA-PK fell in the range of 0.003 to 0.007 µM; in data set [1], 0.5 to 5 µM. Moreover, on Kv11.1 (hERG) (read-out: Ki [Kv1.11 hERG]), the inhibition constant (Ki) is < 10 µM.
Taken in the same sequence, the figures for `OC(c1cc(-c2ncnc3cc(N4CCOCC4)ccc23)c(F)cc1Cl)c1nccn2ccnc12` (stereo not drawn) [Example 397, [2-Chloro-4-fluoro-5-(7-morpholin-4-yl-quinazolin-4-yl)-phenyl]imidazo-[1,2-a]pyrazin-8-yl-methanol] were 0.003 to 0.007 µM, < 0.5 µM and > 25 µM.
Consider `CCn1c(C(O)c2ccc(F)c(-c3ncnc4cc(N5CCOCC5)ccc34)c2)cccc1=O` (stereo not drawn) [Example 398, 1-Ethyl-6-{[4-f1uoro-3-(7-morpholin-4-yl-quinazolin-4-yl)-phenyl]hydroxy-methyl}-1H-pyridin-2-one], for which the half-inhibitory concentration (IC50) was 0.003 to 0.007 µM on DNA-PK and 0.5 to 5 µM in data set [1]. At Kv11.1 (hERG) (read-out: Ki [Kv1.11 hERG]), the Ki is > 25 µM.
With `OC(c1ccc(F)c(-c2ncnc3cc(N4CCOCC4)ccc23)c1)c1nnc2ccccn12` (stereo not drawn) [Example 399, [4-Fluoro-3-(7-morpholin-4-yl-quinazolin-4-yl)-phenyl]-[1,2,4]-triazolo[4,3-a]pyridin-3-ylmethanol], the IC50 was < 0.003 µM at DNA-PK and 0.5 to 5 µM in data set [1]. The inhibitory constant (Ki) at Kv11.1 (hERG) (read-out: Ki [Kv1.11 hERG]) was > 25 µM.
On to `Cn1c(C(O)c2cc(-c3ncnc4cc(N5CCOCC5)ccc34)ccc2Cl)cccc1=O` (stereo not drawn) [Example 400, 6-{[2-Chloro-5-(7-morpholin-4-yl-quinazolin-4-yl)-phenyl]hydroxy-methyl}-1-methyl-1H-pyridin-2-one], for which the half-inhibitory concentration (IC50) against DNA-PK was < 0.003 µM; in data set [1] it was < 0.5 µM. Also, the Ki at Kv11.1 (hERG) (Ki [Kv1.11 hERG]) is 15 to 25 µM.
As to `Cn1c(C(O)c2cc(-c3ncnc4cc(N5CCOCC5)ccc34)ccc2F)cccc1=O` (stereo not drawn) [Example 401, 6-{[2-Fluoro-5-(7-morpholin-4-yl-quinazolin-4-yl)-phenyl]hydroxy-methyl}-1-methyl-1H-pyridin-2-one], the half-maximal inhibitory concentration (IC50) against DNA-PK was 0.003 to 0.007 µM; in data set [1], 0.5 to 5 µM. The compound also yielded an inhibition constant (Ki) on Kv11.1 (hERG) (Ki [Kv1.11 hERG]) of 10 to 15 µM.
Take `Cn1ncc2c(C(O)c3cc(-c4ncnc5cc(N6CCOCC6)ccc45)c(F)cc3Cl)ncnc21` (stereo not drawn) [Example 402, [2-Chloro-4-fluoro-5-(7-morpholin-4-yl-quinazolin-4-yl)-phenyl]-(1-methyl-1H-pyrazolo[3,4-d}-pyrimidin-4-yl)-methanol]: the values for the IC50 (against DNA-PK; in data set [1]) were 0.003 to 0.007 µM and 0.5 to 5 µM, respectively. Further, on Kv11.1 (hERG) (Ki [Kv1.11 hERG]), the Ki is 15 to 25 µM.
As for `Cn1ncc2c(C(O)c3cc(-c4ncnc5cc(N6CCOCC6)ccc45)c(F)cc3F)ncnc21` (stereo not drawn) [Example 403, [2,4-Difluoro-5-(7-morpholin-4-yl-quinazolin-4-yl)-phenyl]-(1-methyl-1H-pyrazolo[3,4-d}-pyrimidin-4-yl)-methanol], the 50% inhibitory concentration (IC50) lay in the range of 0.003 to 0.007 µM against DNA-PK and 0.5 to 5 µM in data set [1]. Moreover, at Kv11.1 (hERG) (Ki [Kv1.11 hERG]), the inhibitory constant (Ki) fell in the range of 15 to 25 µM.
Take `Cn1ncc2c(C(O)c3ccc(F)c(-c4ncnc5cc(N6CCOCC6)ccc45)c3)ncnc21` (stereo not drawn) [Example 404, [4-Fluoro-3-(7-morpholin-4-yl-quinazolin-4-yl)-phenyl]-(1-methyl-1H-pyrazolo[3,4-d}-pyrimidin-4-yl)-methanol]: the IC50 against DNA-PK was 0.003 to 0.007 µM; in data set [1] it was < 0.5 µM. Also, on Kv11.1 (hERG) (read-out: Ki [Kv1.11 hERG]), the inhibitory constant (Ki) is > 25 µM.
Take `OC(c1cc(-c2ncnc3cc(N4CCOCC4)ccc23)ccc1F)c1ncnc2ccsc12` (stereo not drawn) [Example 405, [2-Fluoro-5-(7-morpholin-4-yl-quinazolin-4-yl)-phenyl]thieno[3,2-d}-pyrimidin-4-yl-methanol]: the IC50 on DNA-PK was < 0.003 µM; in data set [1], < 0.5 µM. Besides, the inhibition constant (Ki) on Kv11.1 (hERG) (read-out: Ki [Kv1.11 hERG]) is < 10 µM.
On to `OC(c1cc(-c2ncnc3cc(N4CCOCC4)ccc23)ccc1F)c1ncnc2sccc12` (stereo not drawn) [Example 406, [2-Fluoro-5-(7-morpholin-4-yl-quinazolin-4-yl)-phenyl]thieno[2,3-d}-pyrimidin-4-yl-methanol], for which the half-maximal inhibitory concentration (IC50) on DNA-PK was < 0.003 µM; in data set [1], < 0.5 µM. The compound further registered an inhibition constant (Ki) on Kv11.1 (hERG) (Ki [Kv1.11 hERG]) of 10 to 15 µM.
Consider `Cc1cncnc1C(C(N)=O)c1cc(-c2ncnc3cc(N4CCOCC4)ccc23)ccc1Cl` (stereo not drawn) [Example 407, 2-[2-Chloro-5-(7-morpholin-4-yl-quinazolin-4-yl)-phenyl]-2-(5-methyl-pyrimidin-4-yl)-acetamide], for which the IC50 was < 0.003 µM against DNA-PK and 0.5 to 5 µM in data set [1]. At Kv11.1 (hERG) (read-out: Ki [Kv1.11 hERG]), the inhibition constant (Ki) was in the range of 15 to 25 µM.
`COc1cncnc1C(O)c1cc(-c2ncnc3cc(N4CCOCC4)ccc23)ccc1Cl` (stereo not drawn) [Example 408, [2-Chloro-5-(7-morpholin-4-yl-quinazolin-4-yl)-phenyl]-(5-methoxy-pyrimidin-4-yl)-methanol]: the concentration for half-maximal inhibition (IC50) against DNA-PK lay within 0.003 to 0.007 µM; in data set [1], 0.5 to 5 µM. This compound returned an inhibition constant Ki at Kv11.1 (hERG) (Ki [Kv1.11 hERG]) of 10 to 15 µM.
For the compound `COc1cncnc1C(O)c1cc(-c2ncnc3cc(N4CCOCC4)ccc23)ccc1Cl` (stereo not drawn) [Example 409, [2-Chloro-5-(7-morpholin-4-yl-quinazolin-4-yl)-phenyl]-(5-methoxy-pyrimidin-4-yl)-methanol], the IC50 on DNA-PK fell in the range of 0.003 to 0.007 µM; in data set [1], 0.5 to 5 µM. Further, on Kv11.1 (hERG) (read-out: Ki [Kv1.11 hERG]), the inhibition constant Ki was > 25 µM.
Regarding `COc1nccnc1C(O)c1cc(-c2ncnc3cc(N4CCOCC4)ccc23)ccc1Cl` (stereo not drawn) [Example 410, [2-Chloro-5-(7-morpholin-4-yl-quinazolin-4-yl)-phenyl]-(3-methoxy-pyrazin-2-yl)-methanol], the 50% inhibitory concentration (IC50) was < 0.003 µM on DNA-PK and < 0.5 µM in data set [1]. Further, the Ki at Kv11.1 (hERG) (read-out: Ki [Kv1.11 hERG]) was < 10 µM.
In the case of `COc1nccnc1[C@@H](O)c1cc(-c2ncnc3cc(N4CCOCC4)ccc23)ccc1Cl` [Example 411, (S)-[2-Chloro-5-(7-morpholin-4-yl-quinazolin-4-yl)-phenyl]-(3-methoxy-pyrazin-2-yl)-methanol], the IC50 against DNA-PK lay within 0.003 to 0.007 µM; in data set [1] it was 0.5 to 5 µM. The same compound yielded a Ki at Kv11.1 (hERG) (Ki [Kv1.11 hERG]) of 10 to 15 µM.
Take `OC(c1cc(-c2ncnc3cc(N4CCOCC4)ccc23)ccc1Cl)c1ncncc1F` (stereo not drawn) [Example 412, [2-Chloro-5-(7-morpholin-4-yl-quinazolin-4-yl)-phenyl]-(5-fluoro-pyrimidin-4-yl)-methanol]: the half-maximal inhibitory concentration (IC50) at DNA-PK was 0.007 to 0.03 µM; in data set [1], 5 to 10 µM. In addition, the Ki at Kv11.1 (hERG) (Ki [Kv1.11 hERG]) was in the range of 15 to 25 µM.
Taken in the same sequence, the figures for `COc1cncnc1C(O)c1cc(-c2ncnc3cc(N4CCOCC4)ccc23)ccc1Cl` (stereo not drawn) [Example 413, [2-Chloro-5-(7-morpholin-4-yl-quinazolin-4-yl}-phenyl]-(5-methoxy-pyrimidin-4-yl)-methanol] were 0.003 to 0.007 µM, 0.5 to 5 µM and 15 to 25 µM.
